Literature values in patent publication US20240307352A1, “SACUBITRIL VALSARTAN SODIUM SUSTAINED-RELEASE COMPOSITION, AND PREPARATION METHOD THEREFOR AND USE THEREOF” (SHANGHAI AURORA BIOTECHNOLOGY CO., LTD., priority 2021, published 2024).

Tested on: patients with heart failure with reduced ejection fraction (HF-REF)
Details: compared to enalapril-treated counterpart

octadecasodium hexa(4-{[(1S,3R)-1-([1,1′-biphenyl)-4-ylmethyl)-4-ethoxy-3-methyl-4-oxobutyl]amino}-4-oxobutyric acid) hexa(N-pentanoyl-N-{[2′-(1H-tetrazol-5-yl)biphenyl-4-yl]methyl}-L-valine)-hydrate (1/15) [LCZ696]
Reduction in death risk: 20%
Reduction in hospitalization risk: 21%
